pIC50: −log10 of the molar value. Read-outs that look alike come from different tables or passages of the source.
How the values were obtained:
Type in all cases: cell-based
[1] = tested on: non-small-cell lung cancer cells (Calu1); test: In vitro potency (CellTiter-Glo, 96 h), Calu1; details: Homo sapiens, Calu-1, 96 h
Protocol: (§1) In vitro potency was assessed on multiple cancer cell lines. All cell lines were authenticated by STR profiling at IDEXX Bioresearch and cultured for no more than 2 months after resuscitation. Cells cultured in log-phase growth were seeded for 24 hours in 96-well plates containing […] RPMI 1640 supplemented with 20% FBS. Serial dilutions of antibody-drug conjugates in cell culture media were prepared at 4× working concentrations, and 50 μL of each dilution was added to the 96-well plates. Following addition of test articles, cells were incubated with test articles for 4 days at 37 0° C. After 96 hours, growth inhibition was assessed by CellTiterGlo® (Promega, Madison, WI) and luminescence was measured on a plate reader.
(§2) In Table 7, IC50 values for ADCs are given in ng/mL. Cell viability was determined by CellTiter-Glo staining after 96 h exposure to ADC. ND=Not Determined. Ag2 is an antibody targeting a ubiquitous and readily internalizable antigen. The cancer cell lines tested are renal carcinoma cells (786-0), melanoma cells (A2058), pancreatic cancer cells (BxPC3), non-small-cell lung cancer cells (Calu1), anaplastic large cell lymphoma cells (DEL, DELBVR, Karpas299), Hodgkin's lymphoma cells (L540cy), (Ls174T), breast cancer cells (MDA-MB-231), acute myeloid leukemia cells (MOLM-13), and B-lymphocyte cancer cells (SU-DHL4).
as §1, with “FBS.” for “FBS. Serial dilutions of antibody-drug conjugates in cell culture media were prepared at 4× working concentrations, and 50 μL of each dilution was added to the 96-well plates.”
(§3) Cell viability was determined by CellTiter-Glo staining after 96 h exposure to the compound. ND=Not Determined. The cancer cell lines tested are renal carcinoma cells (786-0), melanoma cells (A2058), pancreatic cancer cells (BxPC3), non-small-cell lung cancer cells (Calu1), anaplastic large cell lymphoma cells (DEL, DELBVR, Karpas299), Hodgkin's lymphoma cells (L540cy), (Ls 174T), breast cancer cells (MDA-MB-231), acute myeloid leukemia cells (MOLM-13), B-lymphocyte cancer cells (SU-DHL4), multiple myeloma cells (MM.1R), (U266), and melanoma cells (SK-MEL-5).
as §1, with “37°” for “37 0°”
(§4) In the following Tables IC50 values for ADCs and CPT free drugs are given in ng/mL and nmol/L concentrations. Cell viability was determined by CellTiter-Glo staining after 96 h exposure to ADC or CPT free drug.
(§5) Cell viability was determined by CellTiter-Glo staining after 96 h exposure to ADC. ND=Not Determined.

[2] = tested on: anaplastic large cell lymphoma cells (DELBVR); test: In vitro potency (CellTiter-Glo, 96 h), DELBVR
In short: (§6)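 Medium: RPMI 1640 + 20% FBS. Pre-seeding: 24 h. Treatment: ADC or CPT free drug serial dilutions, 96 h, 37 °C. Read-out: luminescence; IC50 in ng/mL and nmol/L.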

[3] = tested on: melanoma cells (A2058); test: In vitro potency (CellTiter-Glo, 96 h), A2058; details: Homo sapiens, A2058, 96 h
Protocol: as §1, §2
as §1, with “FBS.” for “FBS. Serial dilutions of antibody-drug conjugates in cell culture media were prepared at 4× working concentrations, and 50 μL of each dilution was added to the 96-well plates.”
as §3
as §1, with “37°” for “37 0°”
as §4, §5

[4] = tested on: anaplastic large cell lymphoma cells (DEL); test: In vitro potency (CellTiter-Glo, 96 h), DEL
In short: (§7)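 Four-day continuous exposure at 37 °C to serially diluted ADC or free camptothecin payload, in RPMI 1640 with 20% FBS after 24 h pre-plating. Luminescent signal gave IC50 (ng/mL; nmol/L).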

[5] = tested on: B-lymphocyte cancer cells (SU-DHL4); test: In vitro potency (CellTiter-Glo, 96 h), SU-DHL-4; details: Homo sapiens, SU-DHL-4, 96 h
In short: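 Cells in log-phase growth seeded 24 h in RPMI 1640 with 20% FBS, then exposed to serially diluted ADC or CPT free drug for 96 h at 37 °C. Growth inhibition read by CellTiter-Glo luminescence; IC50 reported in ng/mL or nmol/L.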

[6] = tested on: acute myeloid leukemia cells (MOLM-13); test: In vitro potency (CellTiter-Glo, 96 h), MOLM-13; details: Homo sapiens, MOLM-13, 96 h
In short: as §7

[7] = tested on: Hodgkin's lymphoma cells (L540cy); test: In vitro potency (CellTiter-Glo, 96 h), L540cy
In short: as §6

[8] = tested on: renal carcinoma cells (786-O); test: In vitro potency (CellTiter-Glo, 96 h), 786-O; details: Homo sapiens, 786-0, 96 h
In short: as §6

[9] = tested on: breast cancer cells (MDA-MB-231); test: In vitro potency (CellTiter-Glo, 96 h), MDA-MB-231; details: Homo sapiens, MDA-MB-231, 96 h
In short: as §6

[10] = tested on: Ls174T cells; test: In vitro potency (CellTiter-Glo, 96 h), Ls174T; details: Homo sapiens, LS174T, CPT free drugs
In short: as §7

[11] = tested on: anaplastic large cell lymphoma cells (Karpas299); test: In vitro potency (CellTiter-Glo, 96 h), Karpas299; details: Homo sapiens, KARPAS-299, 96 h
In short: as §6

[12] = tested on: pancreatic cancer cells (BxPC3); test: In vitro potency (CellTiter-Glo, 96 h), BxPC3; details: Homo sapiens, BXPC-3, 96 h
In short: as §7

[13] = CPT free drugs, Table 24, CellTiter-Glo after 96 h exposure, read-out: IC50 (nmol/L) Calu1
[14] = CPT free drugs, Table 24, CellTiter-Glo after 96 h exposure, read-out: IC50 (nmol/L) DELBVR
[15] = CPT free drugs, Table 24, CellTiter-Glo after 96 h exposure, read-out: IC50 (nmol/L) A2058
[16] = CPT free drugs, Table 24, CellTiter-Glo after 96 h exposure, read-out: IC50 (nmol/L) DEL
[17] = CPT free drugs, Table 24, CellTiter-Glo after 96 h exposure, read-out: IC50 (nmol/L) SU-DHL-4
[18] = CPT free drugs, Table 24, CellTiter-Glo after 96 h exposure, read-out: IC50 (nmol/L) MOLM-13
[19] = CPT free drugs, Table 24, CellTiter-Glo after 96 h exposure, read-out: IC50 (nmol/L) L540cy
[20] = CPT free drugs, Table 24, CellTiter-Glo after 96 h exposure, read-out: IC50 (nmol/L) 786-O
[21] = CPT free drugs, Table 24, CellTiter-Glo after 96 h exposure, read-out: IC50 (nmol/L) MDAMB231
[22] = Table 24, CellTiter-Glo after 96 h exposure, read-out: IC50 (nmol/L) Ls174T
[23] = CPT free drugs, Table 24, CellTiter-Glo after 96 h exposure, read-out: IC50 (nmol/L) Karpas299
[24] = CPT free drugs, Table 24, CellTiter-Glo after 96 h exposure, read-out: IC50 (nmol/L) BxPC3

SMILES	pIC50 [1, 13]	pIC50 [2, 14]	pIC50 [3, 15]	pIC50 [4, 16]	pIC50 [5, 17]	pIC50 [6, 18]	pIC50 [7, 19]	pIC50 [8, 20]	pIC50 [9, 21]	pIC50 [10, 22]	pIC50 [11, 23]	pIC50 [12, 24]	also measured
CC[C@@]1(O)C(=O)OCc2c1cc1n(c2=O)Cc2c-1nc1ccc(OC)cc1c2CN [Compound 2d]	7.37	9.00	8.70	9.00	8.40	7.60	8.70	8.30	8.40	8.43	8.15	7.92	
CC[C@@]1(O)C(=O)OCc2c1cc1n(c2=O)Cc2c-1nc1cc(F)c(O)c3c1c2CNC3 [Compound 3c]	< 6.00	< 6.00	< 6.00	< 6.00	< 6.00	< 6.00	< 6.00	< 6.00	< 6.00	< 6.00	< 6.00	< 6.00	
CC[C@@]1(O)C(=O)OCc2c1cc1n(c2=O)Cc2c-1nc1ccccc1c2CN [Compound 2ae]	7.19	8.30	8.30	8.30	8.10	6.72	8.22	7.77	6.97		7.85	7.64	
CC[C@@]1(O)C(=O)OCc2c1cc1n(c2=O)Cc2c-1nc1cc3c(c(Br)c1c2CN)OCO3 [Compound 5c]													pIC50 ([1]; read-out: Calu1 IC50): 8.40; pIC50 ([3]; read-out: A2058 IC50): 8.30; pIC50 ([4]; read-out: DEL IC50, Table 28, CPT free drugs, anaplastic large cell lymphoma cells DEL, CellTiter-Glo): 9.52; pIC50 ([5]; read-out: SU-DHL-4 IC50, Table 28, CPT free drugs, B-lymphocyte cancer cells SU-DHL4, 96 h, CellTiter-Glo): 9.30; pIC50 ([6]; read-out: MOLM-13 IC50, Table 28, CPT free drugs, acute myeloid leukemia cells MOLM-13, 96 h, CellTiter-Glo): 8.70; pIC50 ([7]; read-out: L540cy IC50, Table 28, CPT free drugs, Hodgkin's lymphoma cells L540cy, CellTiter-Glo): 9.10; pIC50 ([8]; read-out: 786-O IC50, Table 28, CPT free drugs, renal carcinoma cells 786-O, 96 h, CellTiter-Glo): 9.00; pIC50 ([9]; read-out: MDAMB231 IC50, Table 28, CPT free drugs, breast cancer cells MDA-MB-231, 96 h, CellTiter-Glo): 8.70; pIC50 ([10]; 96 h, read-out: Ls174T IC50, Table 28, Ls174T cells, 96 h, CellTiter-Glo): 8.22; pIC50 ([11]; read-out: Karpas299 IC50, Table 28, CPT free drugs, anaplastic large cell lymphoma cells Karpas299, 96 h, CellTiter-Glo): 9.00; pIC50 ([12]; read-out: BxPC3 IC50, Table 28, CPT free drugs, pancreatic cancer cells BxPC3, 96 h, CellTiter-Glo): 8.10
CC[C@@]1(O)C(=O)OCc2c1cc1n(c2=O)Cc2c-1nc1ccc3c(c1c2CN)OCCO3 [Compound 2ag]	6.82	7.89	8.00	8.22	7.80	7.20	7.82	7.46	6.75		7.47	7.24	
CC[C@@]1(O)C(=O)OCc2c1cc1n(c2=O)Cc2c-1nc1cc3c(cc1c2CN)OCCO3 [Compound 2af]													pIC50 ([1]; read-out: IC50 (nmol/L) Calu1): 7.24; pIC50 ([2]; read-out: IC50 (nmol/L) DELBVR, CPT free drugs, Table 24, CellTiter-Glo after 96 h exposure): 9.00; pIC50 ([3]; read-out: IC50 (nmol/L) A2058): 8.70; pIC50 ([4]; read-out: IC50 (nmol/L) DEL, CPT free drugs, Table 24, CellTiter-Glo after 96 h exposure): 9.00; pIC50 ([5]; read-out: IC50 (nmol/L) SU-DHL-4, CPT free drugs, Table 24, CellTiter-Glo after 96 h exposure): 8.70; pIC50 ([6]; read-out: IC50 (nmol/L) MOLM-13, CPT free drugs, Table 24, CellTiter-Glo after 96 h exposure): 7.49; pIC50 ([7]; read-out: IC50 (nmol/L) L540cy, CPT free drugs, Table 24, CellTiter-Glo after 96 h exposure): 8.52; pIC50 ([8]; read-out: IC50 (nmol/L) 786-O, CPT free drugs, Table 24, CellTiter-Glo after 96 h exposure): 8.15; pIC50 ([9]; read-out: IC50 (nmol/L) MDAMB231, CPT free drugs, Table 24, CellTiter-Glo after 96 h exposure): 7.41; pIC50 ([11]; read-out: IC50 (nmol/L) Karpas299, CPT free drugs, Table 24, CellTiter-Glo after 96 h exposure): 8.22; pIC50 ([12]; read-out: IC50 (nmol/L) BxPC3, CPT free drugs, Table 24, CellTiter-Glo after 96 h exposure): 8.15
[2H]C1([2H])Oc2cc3nc4c(c(CN)c3cc2O1)Cn1c-4cc2c(c1=O)COC(=O)[C@]2(O)CC [Compound 2an]	9.00	9.70	9.30	9.70	9.00	8.40		9.00	9.00	8.22	9.00	9.00	

From patent publication US20240207427A1, “SELECTIVE DRUG RELEASE FROM INTERNALIZED CONJUGATES OF BIOLOGICALLY ACTIVE COMPOUNDS” (priority 2021, published 2024)
